Laboratory results as given in PMC6100082, “Pyridine-Ureas as Potential Anticancer Agents: Synthesis and In Vitro Biological Evaluation” (Molecules : A Journal of Synthetic Chemistry and Natural …, 2018).

What was measured:
[1] = system: DU-145; test: NCI one-dose SRB assay (Prostate); format: cell-based, human
Experimental: (§1) The structures of all the newly prepared pyridine-ureas 8a–n were submitted to the National Cancer Institute (NCI) Developmental Therapeutic Program. Eight compounds 8b, 8d, 8e, 8i, 8j and 8l–n were selected to be examined for their in vitro growth inhibitory activity. The anticancer assays were carried out according to the protocol of the Drug Evaluation Branch, NCI, Bethesda. The selected pyridine-ureas were tested at one dose primary anticancer assay against a panel of approximately 58 cancer lines (concentration 10^−5 M). The tested human cancer cell lines emerged from nine different cancer subtypes: leukemia, colon, melanoma, ovarian, lung, CNS, renal, breast and prostate cancers. The sulforhodamine B (SRB) protein assay was adopted to estimate the cell viability and growth. The results were reported as mean-graph of the percentage growth of the treated cells, and presented as percentage growth inhibition (GI%) caused by the test compounds (Table 2).
(§2) The anticancer assays were performed in accordance with the protocol of the Drug Evaluation Branch, NCI, Bethesda. A 48 h drug exposure protocol was used and sulforhodamine B (SRB) protein assay was applied to estimate the cell viability and growth, as reported earlier.

[2] = system: PC-3; test: NCI one-dose SRB assay (Prostate); format: cell-based, human
Experimental: as §1, §2

[3] = system: NCI-H23; test: NCI one-dose SRB assay (Non-Small Cell Lung Cancer); format: cell-based, human
Experimental: as §1, §2

[4] = system: HOP-62; test: as above; format: cell-based, human
Experimental: as §1, §2

[5] = system: EKVX; test: as above; format: cell-based, human
Experimental: as §1, §2

[6] = system: NCI-H460; test: as above; format: cell-based, human
Experimental: as §1, §2

[7] = system: HOP-92; test: as above; format: cell-based, human
Experimental: as §1, §2

[8] = system: NCI-H522; test: as above; format: cell-based, human
Experimental: as §1, §2

[9] = system: NCI-H226; test: as above; format: cell-based, human
Experimental: as §1, §2

[10] = system: NCI-H322M; test: as above; format: cell-based, human
Experimental: as §1, §2

[11] = system: A549/ATCC; test: as above; format: cell-based, human
Experimental: as §1, §2

[12] = system: non-tumorigenic human lung fibroblast WI-38 cell line; test: Cytotoxic activity against non-tumorigenic cells, MTT assay; format: cell-based; conditions: WI-38, MTT
Experimental: The cytotoxic activity of compounds 8b and 8e were evaluated against non-tumorigenic human lung fibroblast WI-38 cell line utilizing the MTT colorimetric assay developed by T. Mosmann (Table 3).
MCF-7 (human breast cancer cell line) and WI-38 (human lung fibroblast cell line), were obtained from American Type Culture Collection (Manassas, VA, USA). The cells were propagated in DMEM and supplemented with 10% heat-inactivated FBS (Hyclone), 10 μg/mL of insulin (Manufacturer, Sigma, St. Louis, MO, USA), and 1% penicillin-streptomycin. MTT assay was utilized to examine the in vitro anti-proliferative activity of the newly prepared ureas following the reported procedures. […] The data presented are the mean of at least three separate experiments.

[13] = target: VEGFR-2 (Homo sapiens, UniProt P35968); test: VEGFR-2 inhibitory assay (Alpha Screen, anti-phosphotyrosine antibody)
VEGFR-2, sequence (P35968 20-1356, species assumed): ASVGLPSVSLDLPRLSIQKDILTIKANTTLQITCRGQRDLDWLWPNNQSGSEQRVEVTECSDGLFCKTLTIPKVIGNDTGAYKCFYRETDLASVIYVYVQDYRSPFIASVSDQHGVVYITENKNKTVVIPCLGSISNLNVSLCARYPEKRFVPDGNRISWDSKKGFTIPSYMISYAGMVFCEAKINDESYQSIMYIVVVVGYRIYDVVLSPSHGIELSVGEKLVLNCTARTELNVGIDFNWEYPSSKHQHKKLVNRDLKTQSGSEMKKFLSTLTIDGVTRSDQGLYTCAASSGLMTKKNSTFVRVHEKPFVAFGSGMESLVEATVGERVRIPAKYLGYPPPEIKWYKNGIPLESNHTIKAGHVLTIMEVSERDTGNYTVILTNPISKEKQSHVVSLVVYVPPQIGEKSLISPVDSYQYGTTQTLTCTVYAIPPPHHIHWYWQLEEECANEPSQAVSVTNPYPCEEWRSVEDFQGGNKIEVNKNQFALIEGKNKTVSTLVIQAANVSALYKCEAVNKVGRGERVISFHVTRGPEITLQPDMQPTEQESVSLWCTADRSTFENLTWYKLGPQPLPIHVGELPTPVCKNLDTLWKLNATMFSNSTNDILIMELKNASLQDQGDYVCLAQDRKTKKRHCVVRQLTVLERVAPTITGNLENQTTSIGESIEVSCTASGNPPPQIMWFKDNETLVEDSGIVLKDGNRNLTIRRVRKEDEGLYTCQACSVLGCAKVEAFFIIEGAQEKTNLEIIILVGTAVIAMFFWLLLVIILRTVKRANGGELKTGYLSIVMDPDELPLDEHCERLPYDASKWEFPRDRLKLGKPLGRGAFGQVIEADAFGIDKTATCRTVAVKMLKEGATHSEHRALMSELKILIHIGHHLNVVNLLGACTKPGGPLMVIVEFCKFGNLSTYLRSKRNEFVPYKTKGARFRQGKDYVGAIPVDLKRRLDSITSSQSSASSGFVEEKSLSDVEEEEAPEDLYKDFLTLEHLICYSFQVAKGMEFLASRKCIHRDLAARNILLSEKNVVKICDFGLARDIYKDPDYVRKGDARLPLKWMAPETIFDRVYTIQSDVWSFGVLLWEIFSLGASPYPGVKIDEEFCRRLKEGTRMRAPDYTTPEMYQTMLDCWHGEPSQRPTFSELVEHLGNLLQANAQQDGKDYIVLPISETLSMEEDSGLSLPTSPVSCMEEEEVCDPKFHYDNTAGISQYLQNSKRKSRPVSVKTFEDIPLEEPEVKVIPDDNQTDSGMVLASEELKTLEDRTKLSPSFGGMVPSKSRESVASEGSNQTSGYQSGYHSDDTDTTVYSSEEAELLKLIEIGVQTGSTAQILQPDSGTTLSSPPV

[14] = Homo sapiens, 10 μM, read-out: Percentage growth inhibition (GI%)

With `COc1ccc(-c2ccc(NC(=O)Nc3ccc(Cl)c(C(F)(F)F)c3)c(C)n2)cc1` [Compound 8e, 1-(4-Chloro-3-(trifluoromethyl)phenyl)-3-(6-(4-methoxyphenyl)-2-methylpyridin-3-yl)urea] the “Growth Percent” value ([1]; DU-145, 1.00E-5 Molar) was 54.52%, the inhibition at 10 µM ([1]; Homo sapiens, DU-145, 10 μM, read-out: Percentage growth inhibition (GI%)) was 46% and the inhibition at 10 µM ([2]; Homo sapiens, PC-3, 10 μM, read-out: Percentage growth inhibition (GI%)) was 86%. The “Growth Percent” value ([2]; PC-3, 1.00E-5 Molar) was 14.67%, the inhibition at 10 µM ([3]; Homo sapiens, NCI-H23, 10 μM, read-out: Percentage growth inhibition (GI%)) was 70% and the “Growth Percent” value ([3]; NCI-H23, 1.00E-5 Molar) was 30.94%. The “Growth Percent” value ([4]; HOP-62, 1.00E-5 Molar) was 62.10%, the inhibition at 10 µM ([4]; Homo sapiens, HOP-62, 10 μM, read-out: Percentage growth inhibition (GI%)) was 38% and the “Growth Percent” value ([5]; 1.00E-5 Molar) was 49.19%. The inhibition at 10 µM [5, 14] was 51%, the inhibition at 10 µM ([6]; Homo sapiens, NCI-H460, 10 μM, read-out: Percentage growth inhibition (GI%)) was 70% and the “Growth Percent” value ([6]; NCI-H460, 1.00E-5 Molar) was 30.90%. For the same compound, the “Growth Percent” value ([7]; HOP-92, 1.00E-5 Molar) was 27.03%, the inhibition at 10 µM ([7]; Homo sapiens, HOP-92, 10 μM, read-out: Percentage growth inhibition (GI%)) was 73% and the inhibition at 10 µM ([8]; Homo sapiens, NCI-H522, 10 μM, read-out: Percentage growth inhibition (GI%)) was 76%. The “Growth Percent” value ([8]; NCI-H522, 1.00E-5 Molar) was 24.81%, the inhibition at 10 µM ([9]; Homo sapiens, NCI-H226, 10 μM, read-out: Percentage growth inhibition (GI%)) was 35% and the “Growth Percent” value ([9]; NCI-H226, 1.00E-5 Molar) was 65.24%. The “Growth Percent” value ([10]; 1.00E-5 Molar) was 71.44%, the inhibition at 10 µM [10, 14] was 29% and the “Growth Percent” value ([11]; 1.00E-5 Molar) was 38.71%. It also gave an inhibition at 10 µM [11, 14] of 62%, an IC50 [12] of 83.1 ± 5.21 µM and an IC50 [13] of 3.93 ± 0.73 µM.
